The values below come from publication PMC8001704, “A Review of Red Yeast Rice, a Traditional Fermented Food in Japan and East Asia: Its Characteristic Ingredients and Application in the Maintenance and Improvement of Health in Lipid Metabolism and the Circulatory System” (Molecules, 2021).

Read-outs that look alike come from different tables or passages of the source.

For data set [1], the system named is presynaptic GABA receptors. The arrangement: method as in PMID 10369462, PMID 11906718. To be noted: through reduction of adrenergic vasoconstriction; cited from earlier work.
Details of data set [2]: method as in PMID 16256107, PMID 8930162. The conditions noted are these: cited from earlier work.
The test system of the next data set is experimental animals. On the set-up: method as in PMID 22929438. The conditions noted are these: Several studies using experimental animals; cited from earlier work.
Data set [3] can be described thus: Pharmacokinetics of monacolin K in plasma after single oral administration of purified monacolin K or red yeast rice. The format is in vivo, male SD rats. To be noted: for AUC(0-t) / Cmax: male, SD, rat, po. An excerpt: Recently, we compared the pharmacokinetics of monacolin K in blood after oral administration of purified monacolin K (lactone form, 99% purity) and red yeast rice produced by solid-state fermentation in male SD rats (7 weeks old). Most of the monacolin K in the plasma was detected in its acid form: both in the monacolin K-administered group and the red yeast rice -administered group. […] The medicinal benefit of red yeast rice is considered to be different to that of monacolin K alone. […] Since red yeast rice contains various ingredients, synergistic effects are expected.
Figure 14 Plasma concentrations of lactone form and acid form of monacolin K after single administration of purified monacolin K or red yeast rice (40 mg/kg monacolin K or dose of red yeast rice equivalent to 40 mg/kg monacolin K) in male SD rats (7 weeks old). Each bar indicates the mean ± standard deviation, quantified according to the reference method.

Data set [4] concerns Rabbits fed on a high-lipid diet. On the set-up: method as in PMID 1376794. To be noted: cited from earlier work.
A further data set concerns Hypertensive model mice. On the set-up: method as in PMID 10405198. The conditions noted are these: cited from earlier work.
Details of data set [5]: method as in PMID 23675421, PMID 7830729. To be noted: cited from earlier work.
Another data set deals with cholesterol synthesis. The conditions noted are these: cited from earlier work.
Data set [6] concerns Mesenchymal stem cells derived from rat bone marrow. The arrangement: method as in PMID 17497701. To be noted: cited from earlier work.
Another data set relates to Cardiac myocytes. On the set-up: method as in PMID 11444504. To be noted: cited from earlier work.
Data set [7] has as its system Human umbilical vein endothelial cells (HUVECs). On the set-up: method as in PMID 16141529. To be noted: cited from earlier work.
On the set-up of data set [8]: method as in PMID 27014344, doi:10.17546/msd.58298. The conditions noted are these: cited from earlier work.
For data set [9], the system named is Squamous epithelial cancer cells. The arrangement: method as in PMID 20562912. The conditions noted are these: cited from earlier work.
The subject of data set [10] is Patients with hypercholesterolemia. On the set-up: method as in PMID 9456275. To be noted: cited from earlier work.
Details of data set [11]: method as in PMID 27422746. The conditions noted are these: cited from earlier work.
The test system of data set [12] is peroxisome proliferator-activated receptors (PPARs), e.g., PPARα. The arrangement: method as in PMID 24275089. To be noted: cited from earlier work.
The mark [13] stands for this setting: plasma, single administration, 40 mg/kg monacolin K or equivalent, individual rats 101-103, 201-203, 40 mg/kg.

Take `NCCCC(=O)O` [GABA, γ-amino butyric acid]: the “effect on blood pressure” value in data set [1] was “hypotensive effect”. In data set [2], the “increases in blood pressure” value is on record as “suppresses” and the “sodium excretion from the kidneys” value is given as “promotes”.
One may read the Cmax as the maximum level reached in the sampled fluid or tissue. On to `CC[C@H](C)C(=O)O[C@H]1C[C@@H](C)C=C2C=C[C@H](C)[C@H](CC[C@@H]3C[C@@H](O)CC(=O)O3)[C@H]21` [Monacolin K, monacolin K], for which the “Effect of Monacolin K, blood circulation” value in the data set with experimental animals was “Increase in cerebral blood flow and cerebral vasomotor response”; in the data set with Hypertensive model mice, “Increase in renal blood flow”. In addition, in data set [3] (after oral administration, male SD rats), the “form in which most of the monacolin K in the plasma was detected” value is on record as “acid form”. Also, the AUC(0-t) in data set [3] (plasma, 40 mg/kg, plasma, single administration, 40 mg/kg monacolin K or equivalent dose of red yeast rice, male SD rats, mean, read-out: AUC0–4h of monacolin K lactone, Mean) was determined as 2.48 ng·h/mL; in data set [3] (plasma, 40 mg/kg, plasma, single administration, 40 mg/kg monacolin K or equivalent, individual rats 101-103, 201-203, read-out: AUC0–4h of monacolin K lactone, individual animals), 3.11 ng·h/mL. In addition, the Cmax in data set [3] (plasma, 40 mg/kg, plasma, single administration, 40 mg/kg monacolin K or equivalent dose of red yeast rice, male SD rats, mean, read-out: Cmax of monacolin K lactone, Mean) stood at 2.48 ng/mL; in data set [3] (plasma, 40 mg/kg, plasma, single administration, 40 mg/kg monacolin K or equivalent, individual rats 101-103, 201-203, read-out: Cmax of monacolin K lactone, individual animals), 3.11 ng/mL. For the same molecule, in [3] (setting [13]), the “AUC0–4h of monacolin K lactone, individual animals” value is listed as 1.85 ng·h/mL. Also, in data set [3] (setting [13]), the “Cmax of monacolin K lactone, individual animals” value is recorded as 1.85 ng/mL. Also, the “Effect of Monacolin K, atheroma formation” value in [4] was “Decrease in number of plaques in the aorta and lung artery”; in data set [7] it was “Inhibition of NF-KB activation by CRP”; in [10] it was “Inhibition of platelet aggregation, macrophage foam cell formation and LDL oxidation”. For the same molecule, the “oxidation of LDL” value in [5] is given as “inhibits”. The “vascular endothelial function (vasoconstrictor reaction)” value in data set [5] (in hyperlipidemia) is given as “improves”. Further, in the data set on cholesterol synthesis, the “inhibition of cholesterol synthesis” value was “potent inhibitor of cholesterol synthesis”. The “Effect of Monacolin K, NOS signaling pathway” value in data set [6] is “Activation (phosphorylation) of AI3K/Akt pathway and MEK 1/2 pathway”; in the data set with Cardiac myocytes, “Increase of IL-1 induced production of nitrite (Increase in NOS expression and NO production mediated by Rho inhibition)”; in data set [9], “Induction of expression of Rho family proteins”. Further, the plasma viscosity result in [8] is on record as “decrease plasma viscosity”.
With `C/C=C/C1=CC2=C(CO1)C(=O)[C@]1(C)OC(=O)[C@H](C(=O)CCCCCCC)[C@H]1C2` [ankaflavin], in [11], the LDL-cholesterol oxidation result is “suppressed”. For the same molecule, in [12], the “action on PPARs, e.g., PPARα” value is recorded as “agonist”.
Take `O=C1[C@H](CC[C@H](O)c2ccc(F)cc2)[C@@H](c2ccc(O)cc2)N1c1ccc(F)cc1` [ezetimibe]: the plasma viscosity result in data set [8] is “decrease plasma viscosity”.
For `C/C=C/C1=CC2=C(CO1)C(=O)[C@]1(C)OC(=O)[C@H](C(=O)CCCCC)[C@H]1C2` [monascin], in data set [11], the LDL-cholesterol oxidation entry is on record as “suppressed”. Moreover, the “action on PPARs, e.g., PPARα” value in data set [12] is listed as “agonist”.
